Results on 2 compounds are retold here after ChEMBL document CHEMBL1156427, “Hepatitis C virus NS5A is a direct substrate of casein kinase I-alpha, a cellular kinase identified by inhibitor affinity chromatography using specific NS5A hyperphosphorylation inhibitors” (J Biol Chem, 2007).

For experiment [1], the target named is Casein kinase II subunit alpha (Homo sapiens, UniProt P68400). Description: Inhibition of human CK2.
Experiment [2] deals with MAP kinase p38 (Homo sapiens, UniProt O15264+Q15759+Q16539+P53778). Description: Inhibition of human p38 MAPK. The format is protein assay.
The target in experiment [3] is Ribosomal protein S6 kinase alpha-3 (Homo sapiens, UniProt P51812). Description: Inhibition of human RSK2.
In experiment [4] the target is Casein kinase I isoform alpha (Homo sapiens, UniProt P48729). Description: Inhibition of human CKIalpha.
For experiment [5], the target named is Mitogen-activated protein kinase 9 (Homo sapiens, UniProt P45984). Description: Inhibition of human JNK2.
Experiment [6] concerns the target Casein kinase I isoform delta (Homo sapiens, UniProt P48730). Description: Inhibition of human CKIdelta.
In experiment [7] the target is Mitogen-activated protein kinase 8 (Homo sapiens, UniProt P45983). Description: Inhibition of human JNK1.
Experiment [8] is described as follows: Inhibition of human PKA.

Some results are limits rather than exact numbers.

Sequence of Mitogen-activated protein kinase 9 (P45984 whole entry, canonical isoform): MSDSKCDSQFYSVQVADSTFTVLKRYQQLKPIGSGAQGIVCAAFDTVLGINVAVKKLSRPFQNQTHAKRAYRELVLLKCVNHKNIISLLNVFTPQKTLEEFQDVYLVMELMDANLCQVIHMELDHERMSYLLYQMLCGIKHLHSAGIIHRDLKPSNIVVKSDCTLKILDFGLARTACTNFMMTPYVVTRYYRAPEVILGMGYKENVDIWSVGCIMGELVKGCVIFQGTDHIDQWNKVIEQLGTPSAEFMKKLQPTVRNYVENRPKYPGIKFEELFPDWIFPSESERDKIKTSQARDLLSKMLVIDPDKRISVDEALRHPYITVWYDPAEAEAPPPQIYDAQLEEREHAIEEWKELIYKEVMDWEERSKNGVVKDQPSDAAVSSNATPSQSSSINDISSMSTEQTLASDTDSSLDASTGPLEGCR
Sequence of Casein kinase I isoform delta (P48730 whole entry, canonical isoform): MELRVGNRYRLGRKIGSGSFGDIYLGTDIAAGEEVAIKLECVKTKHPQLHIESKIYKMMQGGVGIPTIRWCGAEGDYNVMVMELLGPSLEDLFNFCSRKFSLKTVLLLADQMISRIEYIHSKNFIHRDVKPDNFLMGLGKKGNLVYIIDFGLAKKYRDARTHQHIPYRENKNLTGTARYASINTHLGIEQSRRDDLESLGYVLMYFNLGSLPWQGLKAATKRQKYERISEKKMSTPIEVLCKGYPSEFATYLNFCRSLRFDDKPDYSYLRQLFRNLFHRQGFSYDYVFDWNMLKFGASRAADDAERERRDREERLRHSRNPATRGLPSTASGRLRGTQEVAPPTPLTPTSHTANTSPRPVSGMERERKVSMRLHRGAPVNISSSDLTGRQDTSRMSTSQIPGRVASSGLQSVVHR
Sequence of Casein kinase II subunit alpha (P68400 whole entry): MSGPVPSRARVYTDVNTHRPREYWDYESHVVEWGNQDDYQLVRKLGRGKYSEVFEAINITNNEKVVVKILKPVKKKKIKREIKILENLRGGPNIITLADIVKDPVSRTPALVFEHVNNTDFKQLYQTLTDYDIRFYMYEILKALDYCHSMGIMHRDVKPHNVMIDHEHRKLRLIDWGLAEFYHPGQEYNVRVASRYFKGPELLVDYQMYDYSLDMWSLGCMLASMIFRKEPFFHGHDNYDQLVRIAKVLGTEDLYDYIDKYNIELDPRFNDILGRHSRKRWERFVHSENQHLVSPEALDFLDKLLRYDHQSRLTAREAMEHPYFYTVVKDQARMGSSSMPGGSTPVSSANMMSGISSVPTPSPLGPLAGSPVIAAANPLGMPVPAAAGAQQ
Sequence of Casein kinase I isoform alpha (P48729 whole entry, canonical isoform): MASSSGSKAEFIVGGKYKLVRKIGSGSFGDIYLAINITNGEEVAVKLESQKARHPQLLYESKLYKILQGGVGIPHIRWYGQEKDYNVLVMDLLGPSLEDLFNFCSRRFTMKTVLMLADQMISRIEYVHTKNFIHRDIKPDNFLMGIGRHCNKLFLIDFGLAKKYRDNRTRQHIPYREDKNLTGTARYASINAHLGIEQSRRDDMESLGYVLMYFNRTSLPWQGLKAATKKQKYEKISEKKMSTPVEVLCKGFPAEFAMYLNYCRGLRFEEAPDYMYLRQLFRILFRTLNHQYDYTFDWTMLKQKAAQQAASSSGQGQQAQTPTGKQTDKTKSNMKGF
Sequence of Ribosomal protein S6 kinase alpha-3 (P51812 whole entry, canonical isoform): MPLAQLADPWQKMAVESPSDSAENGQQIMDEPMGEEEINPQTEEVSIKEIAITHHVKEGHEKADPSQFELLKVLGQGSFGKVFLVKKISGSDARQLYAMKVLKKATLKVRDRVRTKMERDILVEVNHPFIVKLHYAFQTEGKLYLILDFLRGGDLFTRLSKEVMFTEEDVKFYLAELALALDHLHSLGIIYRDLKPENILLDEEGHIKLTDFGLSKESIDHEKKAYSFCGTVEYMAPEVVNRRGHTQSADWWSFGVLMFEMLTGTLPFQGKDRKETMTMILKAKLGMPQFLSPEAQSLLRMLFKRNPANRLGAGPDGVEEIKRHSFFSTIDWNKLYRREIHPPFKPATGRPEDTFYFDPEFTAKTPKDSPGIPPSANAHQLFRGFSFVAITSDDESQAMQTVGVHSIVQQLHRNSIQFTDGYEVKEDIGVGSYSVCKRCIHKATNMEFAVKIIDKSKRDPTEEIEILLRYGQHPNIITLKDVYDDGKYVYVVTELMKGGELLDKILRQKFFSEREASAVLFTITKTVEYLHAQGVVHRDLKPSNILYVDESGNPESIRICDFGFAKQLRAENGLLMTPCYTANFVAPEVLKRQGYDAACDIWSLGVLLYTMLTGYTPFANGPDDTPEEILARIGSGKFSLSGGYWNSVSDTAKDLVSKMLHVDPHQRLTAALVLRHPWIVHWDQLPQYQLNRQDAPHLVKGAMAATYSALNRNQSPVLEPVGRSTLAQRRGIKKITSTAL
Sequence of Mitogen-activated protein kinase 8 (P45983 whole entry): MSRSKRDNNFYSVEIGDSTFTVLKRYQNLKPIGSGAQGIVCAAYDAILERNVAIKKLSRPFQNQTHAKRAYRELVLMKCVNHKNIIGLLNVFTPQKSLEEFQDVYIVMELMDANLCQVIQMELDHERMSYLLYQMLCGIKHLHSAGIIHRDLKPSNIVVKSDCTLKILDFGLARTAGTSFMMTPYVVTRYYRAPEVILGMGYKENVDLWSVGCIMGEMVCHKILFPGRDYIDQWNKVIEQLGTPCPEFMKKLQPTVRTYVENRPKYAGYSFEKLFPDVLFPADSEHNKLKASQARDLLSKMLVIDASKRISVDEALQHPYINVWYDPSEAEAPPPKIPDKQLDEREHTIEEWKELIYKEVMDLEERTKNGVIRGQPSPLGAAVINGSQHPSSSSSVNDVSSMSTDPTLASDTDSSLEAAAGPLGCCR

As to `CNc1nccc(-c2nc(C3CCNCC3)[nH]c2-c2cccc(C(F)(F)F)c2)n1`, the IC50 in experiment [1] was greater than 100 µM; in experiment [2], “<= 0.028 uM”; in experiment [3] it was 76 µM; in experiment [4] it was 1.1 µM; in experiment [5], 404 µM; in experiment [6], 1.4 µM. The IC50 came to 385 µM in experiment [7] and 260 µM in experiment [8].

As to `CC1CCC(c2nc(-c3ccc(F)cc3)c(-c3ccncc3)[nH]2)CC1` (stereo unspecified), the IC50 is greater than 100 µM in experiment [1]; “<= 0.024 uM” in experiment [2]; 39 µM in experiment [3]; 1.3 µM in experiment [4]; 166 µM in experiment [5]; 0.4 µM in experiment [6]. In addition, the figures for the IC50 in experiment [7] and in experiment [8] were 175 µM and 2 µM, respectively.

In general, IC50 refers to the point on the concentration scale where inhibition reaches its midpoint.
